Literature values as cited in patent publication US20230405068A1, “RADIATION-INDUCED FIBROSIS TREATMENT” (Handelsselskabet af 20.10.2020 ApS, priority 2020, published 2023).
Read-outs that look alike come from different tables or passages of the source.

Key:
[1] = test system: radiation-induced dermatitis; conditions: rats
[2] = test system: radiation-induced dermatitis; conditions: mice; applied topically
[3] = test system: radiation-induced injury
[4] = test system: radiation-induced skin fibrosis; conditions: intramuscular injection; humans
[5] = test system: radiation-induced skin fibrosis; conditions: intramuscular injection; pigs

Compound	mitochondrial lipid peroxidation [3]	protection from radiation-induced injury [3]	further results
CC(=O)N[C@@H](CS)C(=O)O [N-acetylcysteine]	–	–	protection from radiation-induced dermatitis [1]: significantly protects
CC1(C)CC[C@]2(NC(=O)C(C)(F)F)CC[C@]3(C)[C@H](C(=O)C=C4[C@@]5(C)C=C(C#N)C(=O)C(C)(C)[C@@H]5CC[C@]43C)[C@@H]2C1 [RTA 408, omaveloxolone]	–	–	protection from radiation-induced dermatitis [2]: allegedly protecting
NCCCNCCSP(=O)(O)O [amifostine]	limit mitochondrial lipid peroxidation	protect from radiation-induced injury	–
N[C@@H](CCC(=O)N[C@@H](CS)C(=O)NCC(=O)O)C(=O)O [glutathione]	limit mitochondrial lipid peroxidation	protect from radiation-induced injury	–
Sod1 (Cu—Zn) protein: Sod1 (Cu—Zn) protein given by intramuscular injection	–	–	protection from radiation-induced skin fibrosis [4]: protected; protection from radiation-induced skin fibrosis [5]: protected
